Measured values as given in US10544143B2, “4-azaindole compounds” (BRISTOL-MYERS SQUIBB COMPANY, priority 2017, dated 2020).
Like-named read-outs stand apart in the source and are kept apart here.

Assays:
human TLR7 = human TLR7 (Homo sapiens (Human), UniProt Q9NYK1); assay: TLR7 inhibition reporter assay (HEK-Blue SEAP); type: cell-based
human TLR8 = human TLR8 (Homo sapiens (Human), UniProt Q9NR97); assay: TLR8 inhibition reporter assay (HEK-Blue SEAP);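 also: SEAP driven by IFN-β minimal promoter carrying NF-κB and AP-1 sites, compounds dosed 0.05 nM to 50 µM for 22 h, inhibition scaled between agonist-plus-DMSO and reference-inhibitor wells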
human TLR9 = human TLR9 (Homo sapiens (Human), UniProt Q9NR96); assay: TLR9 inhibition reporter assay (HEK-Blue SEAP);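 also: SEAP driven by an IFN-β minimal promoter with NF-κB and AP-1 sites, read after 22 h, compounds dosed 0.05 nM–50 µM, inhibition scaled between agonist plus DMSO and reference-inhibitor wells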
[1] = HEK-Blue cells overexpressing human TLR7, gardiquimod 7.5 μM stimulation, SEAP reporter
[2] = read-out: TLR8 IC50, HEK-Blue cells overexpressing human TLR8, R848 15.9 μM stimulation, SEAP reporter
[3] = read-out: TLR9 IC50, HEK-Blue cells overexpressing human TLR9, ODN2006 5 nM stimulation, SEAP reporter
[4] = HEK-Blue human TLR7 cells, gardiquimod 7.5 μM
[5] = read-out: TLR8 IC50, HEK-Blue human TLR8 cells, R848 15.9 μM
[6] = read-out: TLR9 IC50, HEK-Blue human TLR9 cells, ODN2006 5 nM
[7] = HEK-Blue cells overexpressing human TLR7, SEAP reporter, gardiquimod 7.5 μM
[8] = read-out: TLR8 IC50, HEK-Blue cells overexpressing human TLR8, SEAP reporter, R848 15.9 μM
[9] = read-out: TLR9 IC50, HEK-Blue cells overexpressing human TLR9, SEAP reporter, ODN2006 5 nM

human TLR9, sequence (Q9NR96 26-1032): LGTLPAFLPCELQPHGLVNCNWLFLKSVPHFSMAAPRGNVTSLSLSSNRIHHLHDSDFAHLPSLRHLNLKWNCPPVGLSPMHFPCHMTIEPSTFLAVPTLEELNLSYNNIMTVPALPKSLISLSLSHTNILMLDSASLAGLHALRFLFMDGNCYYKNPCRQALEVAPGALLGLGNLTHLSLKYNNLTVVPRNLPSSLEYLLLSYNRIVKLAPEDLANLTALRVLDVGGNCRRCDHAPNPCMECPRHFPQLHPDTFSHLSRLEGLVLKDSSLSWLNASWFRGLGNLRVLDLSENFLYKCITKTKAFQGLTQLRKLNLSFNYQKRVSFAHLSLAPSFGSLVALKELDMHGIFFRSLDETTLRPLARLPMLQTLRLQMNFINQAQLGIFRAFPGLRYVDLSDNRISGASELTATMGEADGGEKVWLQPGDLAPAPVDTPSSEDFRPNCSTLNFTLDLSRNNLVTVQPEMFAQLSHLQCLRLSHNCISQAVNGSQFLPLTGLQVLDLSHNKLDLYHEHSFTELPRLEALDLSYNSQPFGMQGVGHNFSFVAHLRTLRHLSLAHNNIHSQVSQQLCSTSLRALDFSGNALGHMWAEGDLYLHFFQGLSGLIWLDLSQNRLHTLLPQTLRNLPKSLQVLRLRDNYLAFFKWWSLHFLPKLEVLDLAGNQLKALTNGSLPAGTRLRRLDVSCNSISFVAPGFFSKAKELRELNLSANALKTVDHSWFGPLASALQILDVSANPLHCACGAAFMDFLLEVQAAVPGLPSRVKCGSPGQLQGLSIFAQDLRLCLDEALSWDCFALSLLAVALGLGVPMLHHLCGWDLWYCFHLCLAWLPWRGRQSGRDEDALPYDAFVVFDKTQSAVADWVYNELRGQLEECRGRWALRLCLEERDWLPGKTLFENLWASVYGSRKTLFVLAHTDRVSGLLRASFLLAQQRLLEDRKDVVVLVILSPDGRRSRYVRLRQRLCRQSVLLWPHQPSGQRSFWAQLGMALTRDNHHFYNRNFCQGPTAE
human TLR7, sequence (Q9NYK1 27-1049): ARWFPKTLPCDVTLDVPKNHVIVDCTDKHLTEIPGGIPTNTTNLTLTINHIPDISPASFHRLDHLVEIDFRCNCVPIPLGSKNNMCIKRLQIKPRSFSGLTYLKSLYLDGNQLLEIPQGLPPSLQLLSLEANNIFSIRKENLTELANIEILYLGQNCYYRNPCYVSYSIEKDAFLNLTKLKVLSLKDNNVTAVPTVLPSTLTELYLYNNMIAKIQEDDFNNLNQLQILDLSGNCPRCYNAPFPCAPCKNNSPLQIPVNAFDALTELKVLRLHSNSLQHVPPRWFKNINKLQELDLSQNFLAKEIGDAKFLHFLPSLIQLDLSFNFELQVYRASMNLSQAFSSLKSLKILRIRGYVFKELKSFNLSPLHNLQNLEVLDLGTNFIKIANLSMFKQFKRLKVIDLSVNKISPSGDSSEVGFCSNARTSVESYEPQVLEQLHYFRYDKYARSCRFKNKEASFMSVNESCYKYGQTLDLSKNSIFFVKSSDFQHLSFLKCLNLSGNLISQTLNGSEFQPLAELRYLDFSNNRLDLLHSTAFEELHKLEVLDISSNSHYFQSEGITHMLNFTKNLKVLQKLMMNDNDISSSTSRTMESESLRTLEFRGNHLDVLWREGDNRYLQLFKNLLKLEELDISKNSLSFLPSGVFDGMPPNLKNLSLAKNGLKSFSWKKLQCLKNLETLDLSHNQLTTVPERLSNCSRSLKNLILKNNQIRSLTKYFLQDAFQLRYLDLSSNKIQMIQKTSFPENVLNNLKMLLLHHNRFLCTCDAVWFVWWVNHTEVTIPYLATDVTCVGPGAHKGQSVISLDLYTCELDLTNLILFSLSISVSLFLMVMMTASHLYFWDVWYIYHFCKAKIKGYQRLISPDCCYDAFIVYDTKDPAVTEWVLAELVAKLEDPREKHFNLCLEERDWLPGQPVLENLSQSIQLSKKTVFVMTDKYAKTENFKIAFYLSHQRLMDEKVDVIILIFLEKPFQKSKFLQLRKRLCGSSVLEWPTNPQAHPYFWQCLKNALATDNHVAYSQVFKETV
human TLR8, sequence (Q9NR97 27-1041): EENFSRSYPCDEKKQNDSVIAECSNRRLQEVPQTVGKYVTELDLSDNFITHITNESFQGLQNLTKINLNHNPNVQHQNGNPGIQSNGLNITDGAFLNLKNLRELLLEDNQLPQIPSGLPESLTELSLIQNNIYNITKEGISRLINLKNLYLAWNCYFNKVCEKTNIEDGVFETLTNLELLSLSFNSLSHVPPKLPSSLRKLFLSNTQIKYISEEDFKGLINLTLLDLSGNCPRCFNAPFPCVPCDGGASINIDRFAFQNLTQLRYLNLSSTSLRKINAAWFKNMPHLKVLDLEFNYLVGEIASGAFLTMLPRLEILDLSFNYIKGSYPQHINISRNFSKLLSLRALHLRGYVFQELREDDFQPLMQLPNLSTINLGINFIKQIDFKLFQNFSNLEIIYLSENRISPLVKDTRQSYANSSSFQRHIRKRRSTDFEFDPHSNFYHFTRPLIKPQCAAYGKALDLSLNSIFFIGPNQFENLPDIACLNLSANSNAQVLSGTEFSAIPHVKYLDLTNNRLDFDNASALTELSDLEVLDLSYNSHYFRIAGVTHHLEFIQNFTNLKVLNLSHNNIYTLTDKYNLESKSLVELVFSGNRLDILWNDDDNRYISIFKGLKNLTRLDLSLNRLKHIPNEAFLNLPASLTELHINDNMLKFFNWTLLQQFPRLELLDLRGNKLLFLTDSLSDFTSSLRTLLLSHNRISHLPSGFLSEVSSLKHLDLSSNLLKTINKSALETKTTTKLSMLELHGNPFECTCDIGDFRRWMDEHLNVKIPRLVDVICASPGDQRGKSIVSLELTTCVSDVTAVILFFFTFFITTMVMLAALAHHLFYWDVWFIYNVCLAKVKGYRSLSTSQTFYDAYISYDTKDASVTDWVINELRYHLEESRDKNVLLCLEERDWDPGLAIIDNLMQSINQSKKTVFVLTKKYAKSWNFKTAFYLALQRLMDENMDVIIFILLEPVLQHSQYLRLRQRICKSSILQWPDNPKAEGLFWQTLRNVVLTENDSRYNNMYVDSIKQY

| SMILES | IC50 (human TLR7; [1]) [nM] | IC50 (human TLR8; [2]) [nM] | IC50 (human TLR9; [3]) [nM] | IC50 (human TLR7; [4]) [nM] | further results |
| --- | --- | --- | --- | --- | --- |
| Cc1c(-c2[nH]c3ccc(C4CCC(N5CCC5)CC4)nc3c2C(C)C)cn2ncnc2c1C (stereo not drawn) [Example 386] | 1.5 | 4.2 | 1440 |  |  |
| CCN(C)CC(=O)N1[C@H](C)CN(c2ccc3[nH]c(-c4cn5ncnc5c(C)c4C)c(C(C)C)c3n2)C[C@H]1C [Example 927] |  |  |  | 2.9 | IC50 (human TLR8; [5]): 3.7 nM; IC50 (human TLR9; [6]): 4360 nM |
| Cc1c(-c2[nH]c3ccc(N4CCN(C(=O)CN5CC6(CCOC6)C5)CC4)nc3c2C(C)C)cn2ncnc2c1C [Example 956] |  |  |  | 1 | IC50 (human TLR8; [5]): 1.9 nM; IC50 (human TLR9; [6]): 9650 nM |
| [2H]C([2H])([2H])N(C([2H])([2H])[2H])C([2H])([2H])C(=O)N1CCN(c2ccc3[nH]c(-c4cn5ncnc5c(C)c4C)c(C(C)C)c3n2)CC1 (single isomer, unassigned) [Example 888] |  |  |  | 1.2 | IC50 (human TLR8; TLR8 IC50, HEK-Blue human TLR8 cells, R848 15.9 μM): 0.59 nM; IC50 (human TLR9; TLR9 IC50, HEK-Blue human TLR9 cells, ODN2006 5 nM): 12200 nM |
| Cc1c(-c2[nH]c3ccc(N4CCN(C(=O)CN5CCOCC5)CC4)nc3c2C(C)C)cn2ncnc2c1C [Example 143] | 7.8 | 4.5 | > 50000 |  |  |
| Cc1c(-c2[nH]c3ccc(C4CCN(C(=O)CN(C)C)CC4)nc3c2C(C)C)cn2ncnc2c1C [Example 551] |  |  |  |  | IC50 (human TLR7; [7]): 0.94 nM; IC50 (human TLR8; [8]): 5.5 nM; IC50 (human TLR9; [9]): 582 nM |
| COc1cc(-c2[nH]c3ccc(C4CCC(N(C)Cc5cnc(C)cn5)CC4)nc3c2C(C)C)cn2ncnc12 (stereo not drawn) [Example 202] | 3.8 | 28 | 2030 |  |  |
| COc1cc(-c2[nH]c3ccc(C4CC(NCC5(C)COC5)C4)nc3c2C(C)C)cn2ncnc12 (stereo not drawn) [Example 616] |  |  |  |  | IC50 (human TLR7; [7]): 3.6 nM; IC50 (human TLR8; [8]): 1.5 nM; IC50 (human TLR9; [9]): 1280 nM |
| Cc1c(-c2[nH]c3ccc(N4CCN(C(=O)CN5CCC5)C[C@H]4C)nc3c2C(C)C)cn2ncnc2c1C [Example 834] |  |  |  | 0.46 | IC50 (human TLR8; [5]): 2.5 nM; IC50 (human TLR9; [6]): 4370 nM |
| CNCCC(=O)N1C[C@H](C)N(c2ccc3[nH]c(-c4cn5ncnc5c(C)c4C)c(C(C)C)c3n2)C[C@H]1C [Example 1034] |  |  |  | 1400 | IC50 (human TLR8; [5]): > 3120 nM; IC50 (human TLR9; [6]): 26600 nM |
| COc1cc(-c2[nH]c3ccc(N4CCN(CCCC(F)(F)F)CC4)nc3c2C(C)C)cn2ncnc12 [Example 135] | 4.7 | 1.6 | 13200 |  |  |
| Cc1c(-c2[nH]c3ccc(N4C[C@H]5C[C@@H](C4)N5CCC(N)=O)nc3c2C(C)C)cn2ncnc2c1C [Example 756] |  |  |  |  | IC50 (human TLR7; [7]): 3.9 nM; IC50 (human TLR8; [8]): 6 nM; IC50 (human TLR9; [9]): 9060 nM |
| CC(C)c1c(-c2cn(CC#N)c3ncccc23)[nH]c2ccc(C3CCC(NCCS(C)(=O)=O)CC3)nc12 (stereo not drawn) [Example 273] | 75 | 66 | 1110 |  |  |
| CCCCN1CCN(c2ccc3[nH]c(-c4cc(OC)c5ncnn5c4)c(C(C)C)c3n2)CC1 [Example 115] | 1.2 | 0.49 | 3480 |  |  |
| Cc1c(-c2[nH]c3ccc(C4CCC(N(C)C5CC5)CC4)nc3c2C(C)C)cn2ncnc2c1C (stereo not drawn) [Example 387] | 7.2 | 19 | 5510 |  |  |
| CNC1CCC(c2ccc3[nH]c(-c4cn(CC#N)c5ncccc45)c(C(C)C)c3n2)CC1 (stereo not drawn) [Example 270] | 38 | 28 | 322 |  |  |
| Cc1c(-c2[nH]c3ccc(C4CCC(N5CCC6(CCOC6)C5)CC4)nc3c2C(C)C)cn2ncnc2c1C (stereo not drawn) [Example 1066] |  |  |  | 9 | IC50 (human TLR8; [5]): 11 nM; IC50 (human TLR9; [6]): 4290 nM |
| CCN(C)CC(=O)N1C[C@H](C)N(c2ccc3[nH]c(-c4cn5ncnc5c(C)c4C)c(C(C)C)c3n2)C[C@H]1C [Example 893] |  |  |  | 0.34 | IC50 (human TLR8; [5]): 0.74 nM; IC50 (human TLR9; [6]): 7440 nM |
| COc1cc(-c2[nH]c3ccc(C4CCC(N(C)CC(N)=O)CC4)nc3c2C(C)C)cn2ncnc12 (stereo not drawn) [Example 212] | 3.4 | 6.8 | 1190 |  |  |
| Cc1c(-c2[nH]c3ccc(N4CC(N(C)C)C4)nc3c2C(C)C)cn2ncnc2c1C [Example 12] | 10 | 1.6 | 10100 |  |  |
| Cc1c(-c2[nH]c3ccc(C4CCN(CC(=O)N(C)C)CC4)nc3c2C(C)C)cn(C)c(=O)c1Cl [Example 567] |  |  |  |  | IC50 (human TLR7; [7]): 18 nM; IC50 (human TLR8; [8]): 18 nM; IC50 (human TLR9; [9]): 2320 nM |
| Cc1c(-c2[nH]c3ccc(N4C[C@@H](C)NC[C@@H]4C)nc3c2C(C)C)cn2ncnc2c1C [Example 737, 6-(5-((2S,5R)-2,5-dimethylpiperazin-1-yl)-3-isopropyl-1H-pyrrolo[3,2-b]pyridin-2-yl)-7,8-dimethyl-[1,2,4]triazolo[1,5-a]pyridine] |  |  |  |  | IC50 (human TLR7; [7]): 0.59 nM; IC50 (human TLR8; [8]): 0.55 nM; IC50 (human TLR9; [9]): 7770 nM |
| Cc1c(-c2[nH]c3ccc(N4CCN(C(=O)C5CN(C)C5)CC4)nc3c2C(C)C)cn2ncnc2c1C [Example 828] |  |  |  | 0.88 | IC50 (human TLR8; [5]): 1.4 nM; IC50 (human TLR9; [6]): 7160 nM |
| Cc1c(-c2[nH]c3ccc(CCC4CN(C(=O)CN(C)C)C4)nc3c2C(C)C)cn2ncnc2c1C [Example 685] |  |  |  |  | IC50 (human TLR7; [7]): 32 nM; IC50 (human TLR8; [8]): 39 nM; IC50 (human TLR9; [9]): 1580 nM |
